Source: PubChem BioAssay (NCI)
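48-hour exposure; five concentrations; linearly interpolated endpoints. GI50: concentration for 50% inhibition of growth. TGI is the concentration that stops growth completely.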

Columns and labels:
Assay in all cases: NCI tumour cell line growth inhibition, 48 h
NCI-H23 lung = test system: NCI-H23 lung
SR leukemia = test system: SR leukemia
CAKI-1 renal = test system: CAKI-1 renal
SNB-75 CNS = test system: SNB-75 CNS
UACC-257 melanoma = test system: UACC-257 melanoma
MCF7 breast = test system: MCF7 breast
MOLT-4 leukemia = test system: MOLT-4 leukemia
MDA-MB-231 breast = test system: MDA-MB-231 breast
COLO 205 colon = test system: COLO 205 colon
SF-539 CNS = test system: SF-539 CNS

Compound: O=C(Nc1ccccc1C(F)(F)F)c1ccc(NC2=C(Cl)C(=O)N(Cc3ccccc3)C2=O)cc1
- GI50 (NCI-H23 lung): 15.6 µM
- TGI (NCI-H23 lung): 34.2 µM
- GI50 (SR leukemia): 1.85 µM
- TGI (SR leukemia): 3.86 µM
- GI50 (CAKI-1 renal): 1.97 µM
- TGI (CAKI-1 renal): 4.15 µM
- GI50 (SNB-75 CNS): 36.5 µM
- TGI (SNB-75 CNS): > 100 µM
- GI50 (UACC-257 melanoma): 28.7 µM
- TGI (UACC-257 melanoma): 82.9 µM
- GI50 (MCF7 breast): 7.33 µM
- TGI (MCF7 breast): > 100 µM
- GI50 (MOLT-4 leukemia): 3.14 µM
- TGI (MOLT-4 leukemia): 31.6 µM
- GI50 (MDA-MB-231 breast): 12.8 µM
- TGI (MDA-MB-231 breast): 38.4 µM
- GI50 (COLO 205 colon): 98.1 µM
- TGI (COLO 205 colon): > 100 µM
- GI50 (SF-539 CNS): 23 µM
- TGI (SF-539 CNS): 59.5 µM

Compound: O=C(Nc1cccc(-n2cc(-c3ccncc3)c(-c3ccc(O)c(Cl)c3)n2)c1)c1cc(C(F)(F)F)cc(C(F)(F)F)c1
- GI50 (NCI-H23 lung): 5.15 µM
- TGI (NCI-H23 lung): > 50 µM
- GI50 (SR leukemia): 1.43 µM
- TGI (SR leukemia): 5.68 µM
- GI50 (CAKI-1 renal): 2.52 µM
- TGI (CAKI-1 renal): > 50 µM
- GI50 (SNB-75 CNS): 2.35 µM
- TGI (SNB-75 CNS): > 50 µM
- GI50 (UACC-257 melanoma): 16.1 µM
- TGI (UACC-257 melanoma): > 50 µM
- GI50 (MCF7 breast): 2.17 µM
- TGI (MCF7 breast): > 50 µM
- GI50 (MOLT-4 leukemia): 2.88 µM
- TGI (MOLT-4 leukemia): > 50 µM
- GI50 (MDA-MB-231 breast): 0.889 µM
- TGI (MDA-MB-231 breast): 2.17 µM
- GI50 (COLO 205 colon): 9.82 µM
- TGI (COLO 205 colon): 23.5 µM
- GI50 (SF-539 CNS): 4.78 µM
- TGI (SF-539 CNS): 38.9 µM

Compound: NC(Cc1c[nH]c2ccc(F)cc12)C(=O)O (stereo not given)
- GI50 (NCI-H23 lung): 1540 µM
- TGI (NCI-H23 lung): > 2500 µM
- GI50 (SR leukemia): 1200 µM
- TGI (SR leukemia): > 2500 µM
- GI50 (CAKI-1 renal): 1270 µM
- TGI (CAKI-1 renal): > 2500 µM
- GI50 (SNB-75 CNS): 489 µM
- TGI (SNB-75 CNS): 1390 µM
- GI50 (UACC-257 melanoma): 475 µM
- TGI (UACC-257 melanoma): 1220 µM
- GI50 (MCF7 breast): 911 µM
- TGI (MCF7 breast): > 2500 µM
- GI50 (MOLT-4 leukemia): 1030 µM
- TGI (MOLT-4 leukemia): > 2500 µM
- GI50 (MDA-MB-231 breast): 600 µM
- TGI (MDA-MB-231 breast): 1670 µM
- GI50 (COLO 205 colon): 340 µM
- TGI (COLO 205 colon): 1010 µM
- GI50 (SF-539 CNS): 506 µM
- TGI (SF-539 CNS): 1590 µM

Compound: Cc1ccc(/C=C/c2c(C(=O)/C=C/c3ccc(Cl)cc3)c(C)nc3ccccc23)cc1
- GI50 (NCI-H23 lung): 1.38 µM
- TGI (NCI-H23 lung): 3.22 µM
- GI50 (SR leukemia): 1.92 µM
- TGI (SR leukemia): > 100 µM
- GI50 (CAKI-1 renal): 1.27 µM
- TGI (CAKI-1 renal): 2.74 µM
- GI50 (SNB-75 CNS): 1.51 µM
- TGI (SNB-75 CNS): 3.24 µM
- GI50 (UACC-257 melanoma): 2.15 µM
- TGI (UACC-257 melanoma): 4.8 µM
- GI50 (MCF7 breast): 1.58 µM
- TGI (MCF7 breast): 4.95 µM
- GI50 (MOLT-4 leukemia): 2.18 µM
- TGI (MOLT-4 leukemia): > 100 µM
- GI50 (MDA-MB-231 breast): 1.77 µM
- TGI (MDA-MB-231 breast): 3.68 µM
- GI50 (COLO 205 colon): 2.17 µM
- TGI (COLO 205 colon): 5.46 µM
- GI50 (SF-539 CNS): 1.81 µM
- TGI (SF-539 CNS): 3.3 µM
